In patent US20240122974A1, “TREATMENT OF MYOPIA” (University of Utah Research Foundation, priority 2021, published 2024):
Where two headings read alike, the source gives them in different places.

Assays:
[1] = tested on: spontaneous myopic albino guinea pigs; assay: Spontaneous myopic progression in albino guinea pig pups; details: 0.22 mg/mL twice a day
Procedure: Spontaneous myopic albino guinea pigs were used as a model of pediatric myopia. […] Pups of albino guinea pigs were used as a pediatric model starting at age 4-7 days. In this group of n=5 pups, all left eyes were untreated (internal control). The other eye (right eye) was treated with 0.22 mg/mL copper perchlorate hexahydrate twice a day. Treatment started at approximately 1 week of age and continued for approximately 2 months. Measurements were taken between 5-7 days of age (baseline-no treatment) and then biweekly. We examined refractive error by streak retinoscopy after dilation, and axial length by Lenstar biometry (Haag-Streit). Cycloplegic refractive error and cornea inflammation was measured by a masked pediatric ophthalmologist.

lysyl oxidase (LOX) [2] = biological target: T1, lysyl oxidase (LOX) (Homo sapiens, UniProt P28300); details: normal sclera cells, FIG. 8
Target sequence in this assay (P28300 169-417, species assumed): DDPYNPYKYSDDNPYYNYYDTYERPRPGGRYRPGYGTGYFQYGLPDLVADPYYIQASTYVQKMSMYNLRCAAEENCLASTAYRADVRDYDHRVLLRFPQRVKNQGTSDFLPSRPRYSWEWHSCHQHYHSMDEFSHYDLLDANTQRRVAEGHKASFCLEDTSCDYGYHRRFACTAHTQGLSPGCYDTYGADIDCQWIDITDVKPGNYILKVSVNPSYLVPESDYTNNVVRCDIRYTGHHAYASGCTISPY

[3] = tested on: sclera of guinea pig pups; details: 0.08 mg/mL copper perchlorate hexahydrate eye drops twice a day, 8 weeks, n=3, vs untreated sclera, FIG. 3
Procedure: After eight weeks the sclera was dissected for creep compliance testing. Compliance was tested using an Instrong 5943 Mechanical Testing system with custom grips and a 5 N Futek load cell. Each of the six specimens were loaded to 0.005 kgf, corresponding to an equivalent pressure of 12.0-16.6 mmHg depending on specimen dimensions.

[4] = tested on: sclera of guinea pig pups; details: 0.08 mg/mL copper perchlorate hexahydrate eye drops twice a day, 6-8 weeks, n=5; untreated sclera 3.9×10^−4; p=0.036
Procedure: Lysyl oxidase converts lysine to allysine, and conjugates it to lysine or hydroxylysine spontaneously, becoming lysinonorleucine (LNL), an established biomarker of collagen crosslinking. […] After 6 weeks the scleras were dissected and analyzed for LNL content using mass spectroscopy (LC-MS). Semi-quantitative mass spectral analysis was performed using a Sciex 6500 Q-Trap (Sciex, Framingham, MA).

[5] = tested on: genetic model of guinea pig myopia; details: 0.22 mg/ml once a day
Procedure: 0.22 mg/ml copper perchlorate was administered once a day for approximately 3 months to right eye only. The cycloplegic refraction was measured biweekly by a masked pediatric ophthalmologist.

[6] = tested on: genetic model of guinea pig myopia; assay: Genetic model of guinea pig myopia, 0.35 mg/ml eye drops twice a day
Procedure: Copper perchlorate was administered at 0.35 mg/ml to guinea pigs.

lysyl oxidase (LOX) [7] = biological target: T1, lysyl oxidase (LOX)
Procedure: To examine LOX activity in normal corneal cells with copper perchlorate and to compare activity with copper sulfate, cultured corneal stroma cells from normal corneas (n=3 each) in 10% fetal bovine serum (FBS) DMEM were either exposed to copper sulfate or copper perchlorate in BSS then filtered through a 0.25 μm filter. Conditioned culture medium underwent a peroxidase-coupled fluorometric activity assay for LOX using Amplex red. As a parallel assay, we added 500 uM aminopropionitrile (BAPN) which can diminish LOX activity completely. The fluorescence of oxidized Amplex red was recorded every 10 minutes using fluorescence plate reader. After subtracting the background fluorescence, the fluorescence intensity was plotted against the incubation time (FIG. 1).
Target sequence in this assay (P28300 169-417): as the sequence (P28300 169-417, species assumed) above

## O.O.O.O.O.O.[Cu+2].[O-][Cl+3]([O-])([O-])[O-].[O-][Cl+3]([O-])([O-])[O-] [copper perchlorate, copper (II) perchlorate hexahydrate]
[1]; FIG. 5
  axial length, treated eye (OD) compared to control eye (OS): trend of reducing
  vitreous chamber depth, treated eye (OD) compared to control eye (OS): trend of reducing
[1]; about 2 months, topical to right eye
  clinical observations of toxicity or discoloration of corneas: no toxicity or discoloration
[1]; within 9 weeks of treatment, treated vs control eye, n=5
  slowing of myopic progression in refractive error: 48%
Lysyl oxidase (LOX) [2]
  LOX enzyme activity: dramatically increased LOX enzyme activity in a dose response manner
[3]
  scleral creep compliance: decreased creep compliance
[4]
  LNL response in treated sclera: 0.00069 µg/mg
[5]; Day 81
  more myopia developed in untreated left eyes than in treated right eyes (change from baseline): 2.27 diopters
[5]; about 3 months, right eye only, p=0.0189
  slope analysis: refractive error decrease, untreated left eye more than treated right eye: 0.027(sd=0.011) per day
[6]; n=5
  myopia at the end of the experiment, treated versus control eyes: significantly less myopic
[6]; n=5, p<0.05
  axial elongation, treated versus control eye: significantly reduced
  vitreous chamber depth elongation, treated versus control eye: significantly reduced
Lysyl oxidase (LOX) [7]; concentrations as low as 100 nM
  LOX activity compared with the same molar concentration of copper sulfate: increased LOX activity more than the same molar concentration of copper sulfate
Lysyl oxidase (LOX) [7]; keratoconic human cornea stroma cells, concentration as low as 100 nM, FIG. 1B
  induction of LOX activity compared with copper sulfate: higher induction of LOX activity than copper sulfate
Lysyl oxidase (LOX) [7]; normal corneal stroma cells, conditioned culture medium, FIG. 1a
  LOX enzyme activity: dramatically increased LOX enzyme activity in a dose response manner
